Reference: patent US12171761B2, “Vilazodone inclusion complexes, compositions and preparation thereof” (Sunshine Lake Pharma Co., Ltd., priority 2016, dated 2024)

Assay: Solubility of vilazodone under different physiological pH conditions
Format: physicochemical
Experimental: The inventors discovered that a main cause of the difference in vilazodone bioavailability between fasted and fed conditions is the significant difference in the solubility of vilazodone under different physiological pH conditions. Vilazodone is mainly absorbed in the small intestine where the physiological pH is about 6.8, and the solubility of vilazodone under such a pH is very low. Thus the amount and rate of vilazodone that is dissolved in the stomach will affect its absorption in the small intestine. […] However, in a 0.1 N HCl solution (simulated stomach fasted conditions), the solubility of vilazodone is poor, resulting in a significant reduction in bioavailability.

In the case of `N#Cc1ccc2[nH]cc(CCCCN3CCN(c4ccc5oc(C(N)=O)cc5c4)CC3)c2c1` [Vilazodone, 5-(4-[4-(5-cyano-1H-indol-3-yl)butyl]-1-piperazinyl)-2-benzofuran-2-carboxamide], the solubility of vilazodone (0.1 N HCl solution (simulated stomach fasted conditions)) is reported as “poor”, the solubility of vilazodone (pH 3.1 buffer (simulated stomach fed conditions)) is reported as “dissolves well” and the solubility of vilazodone (physiological pH about 6.8 (small intestine)) is reported as “very low”.
